Common to all, as to format: cell-based
Assay [1] concerns Cupriavidus metallidurans MSR33. Kind of assay: Minimum inhibitory concentration (MIC) of heavy metals in agar plates, strain MSR33. Particulars: for Improved resistance (fold): MIC of MSR33 relative to CH34; for MIC, strain MSR33: agar plates, Tris mineral salts medium, increasing metal concentrations. From the text: (§1) The increase of the heavy metal resistance of the novel strain Cupriavidus metallidurans MSR33 was confirmed measuring minimum inhibitory concentration (MIC) of heavy metals in agar plates containing Tris mineral salts medium supplemented with increasing heavy metal concentrations and the organomercurial compound methylmercury.

For assay [2], the system named is Cupriavidus metallidurans strain CH34. Kind of assay: Growth in Tris mineral salts medium with Hg(II) added at exponential phase, strain CH34. Particulars: Hg^2+ 8 μg/g added at exponential phase, succinate. As to the method:
(§2) To characterize the novel mercury resistance capabilities, the recombinant strain Cupriavidus metallidurans MSR33 was grown in minimal medium supplemented with succinate as sole carbon source and energy and in the presence or absence of mercury. Cupriavidus metallidurans strain CH34 was also grown in these conditions.
(§3) The growth of both strains is similar in absence of Hg (II).

The test system of assay [3] is Cupriavidus metallidurans MSR33. The assay is described as follows: Growth in Tris mineral salts medium with Hg(II) added at mid-exponential phase, strain MSR33. Particulars: Hg(II) 8 μg/g added at mid-exponential phase, succinate. As to the method:
as §2, §3

Assay [4] concerns Cupriavidus metallidurans CH34. The assay is described as follows: Minimum inhibitory concentration (MIC) of heavy metals in agar plates, strain CH34. The conditions noted are these: Tris mineral salts medium, increasing metal concentrations.
Description: as §1

For `[Hg+2]` [Hg^2+], in assay [1], the “Improved resistance (fold)” value amounted to 2.4 fold and the “MIC, strain MSR33” value amounted to 24 µg/g. The “effect on growth of strain CH34” value in assay [2] is given as “no further growth”. In addition, in assay [3], the “effect on growth of strain MSR33” value is “do not affect the growth”. Moreover, the “MIC, strain CH34” value in assay [4] (parental strain CH34) was 10 µg/g.
On to `[Cd+2]` [Cd^2+], for which, in assay [1], the “Improved resistance (fold)” value was determined as 1.6 fold and the “MIC, strain MSR33” value came to 160 µg/g. Besides, the “MIC, strain CH34” value in assay [4] (parental strain CH34) worked out at 100 µg/g.
On to `[CH3][Hg][Cl]` [MeHg^+, methylmercury], for which the “Improved resistance (fold)” value in assay [1] is above 18.0 fold. In addition, in assay [1], the “MIC, strain MSR33” value was determined as 18 µg/g. The “MIC, strain CH34” value in assay [4] (parental strain CH34) was below 1 µg/g; in assay [4] (parental strain CH34, listed as CH3Hg^+), “sensitive”.
In the case of `[Cu+2]` [Cu^2+], the “MIC, strain MSR33” value in assay [1] was 240 µg/g. In addition, the “MIC, strain CH34” value in assay [4] (parental strain CH34) amounted to 240 µg/g.

(Values after patent publication US8846376B2, “Recombinant bacterium capable of removing mercury (II) species, cadmium (II) and copper (II) in presence of other heavy metals from polluted sites, product for the bioremediation, process of obtaining the product and method of bioremediation” (Universidad Tecnica Federico Santa Maria, priority 2009, dated 2014).)
